{
  "source": "patent US8053627B2",
  "about": "“Methods for treating demyelination disorders” (University of Chicago, priority 2005, dated 2011)",
  "key": {"[1]": {"test_system": "EAE demyelinating lesions", "experiment": "EAE, CNS delivery of INF-γ at the recovery stage (doxycycline withdrawn at PID7)", "format": "in vivo, mice", "source_text": "Double transgenic mice that allow for temporally regulated delivery of INF-γ to the CNS (Lin et al., J Neurosci 24:10074-10083 (2004)) were used to assess the role of INF-γ in the pathogenesis of EAE. GFAP/tTA; TRE/IFN-γ double transgenic mice, as described in Example 1 were used to determine the effect of INF-γ on the demyelination caused by EAE. All mice were fed doxycycline from the day of conception to repress the expression of INF-γ, and were immunized with myelin oligodendrocyte protein (MOG35-55) to induce EAE. AT day 7 postimmunization (PID7), doxycycline was withdrawn from the experimental group (PID7 DOX−).\nThe level of INF-γ was determined in the control (DOX+) and the PID7 DOX− mice using an ELISA immunoassay as described in Example 1, and the severity of the disease was assessed as a function of a clinical score. Clinical severity scores were recorded daily according to a 0-5 point scale, where 0=healthy, 1=flaccid tail, 2=ataxia and/or paresis of hind limbs, 3=paralysis of hind limbs and/or paresis of forelimbs, 4=tetraparalysis, and 5=moribund or dead.\nThe spinal cord from DOX+ and DOX− animals with EAE was immunostained for MBP, and the remyelination of axons was evaluated. The number of oligodendrocytes was determined in the spine from DOX+ and DOX− mice as the number of CC1 positive cells. Axonal damage was evaluted by immunostaining of non-phosphorylated neurofilament-H. Antibodies to non-phosphorylated neurofilament-H were SM132 diluted to 1:1000 and obtained from Sternberger Monoclonals.\nINF-γ is known to induce MHC antigens and activate macrophages and T lymphocytes. The inflammatory effect of INF-γ was studied in the CNS during remyelination by determining the infiltration of T cells and macrophages, and measuring the expression of MHC-1, TNF-a, IL-2, IL-12 and IL-17. Immunohistochemistry was performed in tissues from the DOX+ and DOX− mice with EAE as described in Example 4. Experimental procedures were followed as described in the examples above."}, "rat oligodendrocytes": {"test_system": "rat oligodendrocytes", "experiment": "Cultured rat oligodendrocytes treated with recombinant rat IFN-γ", "format": "cell-based", "protocol": "To test whether apoptosis of oligodendrocytes that is induced by INF-γ affects ER stress, the effect on the morphology, the degree of apoptosis and the expression of ER markers was studied in a culture of oligodendrocyte precursor cells (OPC). Oligodendrocyte progenitors were cultured from neonatal rat brains (Baerwald, et al. (1998) J. Neurosci Res. 52: 230-239). A mixed glial culture was grown in flasks in medium containing 10% fetal bovine serum (FBS), and when the astrocyte layer became confluent (10-14 days), oligodendrocyte progenitors were separated from astrocytes and microglia using an orbital shaker. Cells, greater than 95% of which were A2B5 positive, GFAP negative and CD11b negative, were cultured in 0.5% FBS containing medium, which also contained PDGF (10 ng/ml) and FGF (5 ng/ml) (both from R&D Systems, Minneapolis, Minn.). Then cells were switched to 0.5% FBS medium without PDGF and FGF for differentiation. After 5 days in the differentiating medium, approximately 40% of cells were positive for myelin protein 2′3′-cyclic nucleotide 3′-phosphodiestaerase (CNP). 70 U/ml recombinant rat IFN-γ (Calbiochem, La Jolla, Calif.) was added to the cells that had been allowed to differentiation for 5 days. […] To examine the oligodendroglial response to general ER stress-inducing agents, progenitor cells that had been cultured in differentaition medium for 5 or 7 days were treated with 2 μg/ml of tunicamycin (Sigma Aldrich) for 6 hours.\nThe level of apoptosis of the OPC cells was determined by double staining CNP (1:200; Sternberger Monoclonals, Lutherville, Md.) and TUNEL using the ApopTag Kit (Serologicals Corp., Norcross, Calif.) and following the manufacturer's instructions. Apoptosis was also evaluated by measuring the activity of caspase-3 in oligodendrocyte lysates using the Fluorimetric Caspase 3 Assay Kit (Sigma, St. Louis, Mo.), according to the manufacturer's instructions.\nTo determine whether INF-γ affects ER function, the RNA expression of ER markers binding immunoglobulin protein (BIP), CAAT enhancer binding protein homologous protein (CHOP), and caspase 12 was determined using real time PCR. RNA was isolated from cultured cells and mice brain using Trizol reagent (Invitrogen, Carlsbad, Calif.) and treated with DNAaseI (Invitrogen) to eliminate genomic DNA. Reverse transcription was performed using Superscript First Strand Synthesis System for RT-PCR kit (Invitrogen). Real-time PCR was performed with iQ Supermix (Bio-Rad, Hercules, Calif.) on a Bio-Rad iQ real-time PCR detection system (Bio-Rad). The following primers and probes (Integrated DNA Technologies Inc., Coralville, Iowa) for real-time PCR were used: mouse CHOP sense primer […] (SEQ ID NO: 34); mouse CHOP antisense primer […] (SEQ ID NO: 35); CHOP probe […] (SEQ ID NO: 36); mouse BIP sense primer […] (SEQ I DNO: 31); mouse BIP antisense primer […] (SEQ ID NO: 32); BIP probe […] (SEQ ID NO: 33); mouse caspase 12 sense primer […] (SEQ ID NO: 37); and mouse caspase antisense primer […] (SEQ ID NO: 38).\nTo determine the effect of INF-γ on the level of phosphorylated eIF-2α and caspase 12 proteins, western blot analysis was performed using the following antibodies anti-eIF-2α (1:500; Santa Cruz), anti-p-eIF-2α (1:1000, Cell signaling Technology), anti-caspase-12 (1:500; Santa Cruz) and anti-actin (1:1000; Sigma, St Louis, Mo.), and according to the following protocol. […]"}, "[2]": {"settings": "DOX− vs DOX+, spinal cord PID50"}},
  "data": [
    {"substance": "IFN-γ: pleotropic cytokine secreted by activated T lymphocytes and natural killer cells; delivered to the CNS by transgene or added as recombinant protein", "values": [
      {"measurement": "number of CC1 positive oligodendrocytes", "setting": "[1]; DOX− animals, PID50", "value": "significantly decreased"},
      {"measurement": "mice that developed hind limb paralysis", "setting": "[1]; DOX− mice, PID17", "value": "24 of 30"},
      {"measurement": "mean maximum clinical score", "setting": "[1]; DOX− mice, PID17, 0-5 scale", "value": "2.69±0.69"},
      {"measurement": "clinical score", "setting": "[1]; DOX− mice, PID50", "value": "~2"},
      {"measurement": "mice continuing to suffer from hind limb paralysis", "setting": "[1]; DOX− mice, PID50", "value": "12/24"},
      {"measurement": "axonal damage (non-phosphorylated neurofilament-H immunostaining)", "setting": "[1]; DOX− vs DOX+", "value": "not affected"},
      {"measurement": "level of MBP in the lumbar spinal cord (immunostaining)", "setting": "[1]; DOX− vs DOX+ mice", "value": "notably reduced"},
      {"measurement": "expression of IL-17 (real time PCR)", "setting": "[1]; [2]", "value": "decrease"},
      {"measurement": "expression of MHC-1, TNF-a, LL2 and IL-12 (real time PCR)", "setting": "[1]; [2]", "value": "increased"},
      {"measurement": "expression of iNOs and IL-23 (real time PCR)", "setting": "[1]; [2]", "value": "did not alter"},
      {"measurement": "number of infiltrating T cells and macrophages in the lumbar spinal cord (CD3, CD11b)", "setting": "[1]; mouse, in vivo", "value": "did not increase significantly"},
      {"measurement": "caspase-3 activity in cell lysates", "setting": "rat oligodendrocytes; 70 U/ml IFN-γ", "value": "markedly increased"},
      {"measurement": "caspase-12 expression (real-time PCR)", "setting": "rat oligodendrocytes; 70 U/ml IFN-γ", "value": "induction of caspase-12 was observed"},
      {"measurement": "level of phosphorylated eIF-2α (Western blot)", "setting": "rat oligodendrocytes; 70 U/ml IFN-γ", "value": "significantly elevated"},
      {"measurement": "apoptosis (TUNEL and CNP double labeling)", "setting": "rat oligodendrocytes; 70 U/ml IFN-γ for 48 h", "value": "induced apoptosis in a significant number of oligodendrocytes"},
      {"measurement": "cell morphology", "setting": "rat oligodendrocytes; 70 U/ml IFN-γ for 48 h, cells differentiated 5 days", "value": "abnormal morphological changes"},
      {"measurement": "level of the active fragment of caspase-12 (Western blot)", "setting": "rat oligodendrocytes; after 48 h of IFN-γ treatment", "value": "strongly elevated"}
    ]}
  ]
}
